The record followed here is ChEMBL document CHEMBL1128530, “Alpha- and beta-adrenoceptors: from the gene to the clinic. 1. Molecular biology and adrenoceptor subclassification” (J Med Chem, 1995).

Test [1] deals with T1, Alpha-1B adrenergic receptor (Homo sapiens, UniProt P35368).
T1 sequence (P35368 whole entry): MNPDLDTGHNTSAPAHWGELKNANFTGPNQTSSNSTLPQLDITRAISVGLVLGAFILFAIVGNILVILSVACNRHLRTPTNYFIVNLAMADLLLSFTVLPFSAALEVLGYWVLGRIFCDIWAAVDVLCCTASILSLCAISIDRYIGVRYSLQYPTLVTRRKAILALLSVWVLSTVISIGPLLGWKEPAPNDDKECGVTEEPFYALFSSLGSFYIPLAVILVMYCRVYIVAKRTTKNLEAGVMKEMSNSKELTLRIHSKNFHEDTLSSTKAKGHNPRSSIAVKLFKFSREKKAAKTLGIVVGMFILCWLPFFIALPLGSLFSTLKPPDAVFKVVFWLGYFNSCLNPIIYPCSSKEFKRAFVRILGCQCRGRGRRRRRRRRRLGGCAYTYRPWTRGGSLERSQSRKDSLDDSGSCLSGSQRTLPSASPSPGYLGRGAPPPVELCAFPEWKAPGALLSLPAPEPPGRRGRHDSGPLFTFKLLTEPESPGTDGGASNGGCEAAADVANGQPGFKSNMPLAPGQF
Kind of test: The compound was tested for binding affinity against Alpha-1B adrenergic receptor, from human clones.

Test [2] has as its target T2, Alpha-1D adrenergic receptor (Homo sapiens, UniProt P25100).
T2 sequence (P25100 whole entry): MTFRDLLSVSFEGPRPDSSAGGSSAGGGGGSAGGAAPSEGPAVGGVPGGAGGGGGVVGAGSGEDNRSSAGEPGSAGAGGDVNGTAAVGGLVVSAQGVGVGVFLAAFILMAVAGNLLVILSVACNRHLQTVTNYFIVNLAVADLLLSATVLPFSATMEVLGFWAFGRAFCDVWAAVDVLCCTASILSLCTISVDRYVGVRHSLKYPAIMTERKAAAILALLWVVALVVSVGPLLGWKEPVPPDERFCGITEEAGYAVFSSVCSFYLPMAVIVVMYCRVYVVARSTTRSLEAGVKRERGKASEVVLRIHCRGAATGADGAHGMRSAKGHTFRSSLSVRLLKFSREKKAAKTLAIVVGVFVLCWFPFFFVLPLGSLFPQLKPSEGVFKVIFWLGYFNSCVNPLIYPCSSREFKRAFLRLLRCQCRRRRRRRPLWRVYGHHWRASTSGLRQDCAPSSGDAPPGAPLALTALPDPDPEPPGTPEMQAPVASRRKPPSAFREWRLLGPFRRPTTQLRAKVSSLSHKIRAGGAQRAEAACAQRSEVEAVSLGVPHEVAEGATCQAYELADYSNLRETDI
The test can be described thus: Binding affinity against Alpha-1D adrenergic receptor, from human clones.

Test [3] concerns the target T3, Alpha-2A adrenergic receptor (Rattus norvegicus, UniProt P22909).
T3 sequence (P22909 whole entry): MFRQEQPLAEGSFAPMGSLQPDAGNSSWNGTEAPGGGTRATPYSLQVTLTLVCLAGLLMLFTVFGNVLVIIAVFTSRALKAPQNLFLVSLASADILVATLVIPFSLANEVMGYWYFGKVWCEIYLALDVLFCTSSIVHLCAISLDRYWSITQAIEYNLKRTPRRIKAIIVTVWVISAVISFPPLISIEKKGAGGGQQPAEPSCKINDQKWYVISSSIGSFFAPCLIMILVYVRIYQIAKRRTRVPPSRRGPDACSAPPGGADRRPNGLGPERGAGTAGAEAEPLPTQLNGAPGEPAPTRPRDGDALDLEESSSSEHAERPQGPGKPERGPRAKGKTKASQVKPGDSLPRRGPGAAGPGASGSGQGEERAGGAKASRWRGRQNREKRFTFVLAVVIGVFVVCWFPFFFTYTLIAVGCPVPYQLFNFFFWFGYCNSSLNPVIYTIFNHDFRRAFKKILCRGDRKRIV
Kind of test: The compound was tested for binding affinity against alpha-2d-adrenoceptor, from rat clones.

Test [4] concerns the target T4, Alpha-2A adrenergic receptor (Homo sapiens, UniProt P08913).
T4 sequence (P08913 whole entry): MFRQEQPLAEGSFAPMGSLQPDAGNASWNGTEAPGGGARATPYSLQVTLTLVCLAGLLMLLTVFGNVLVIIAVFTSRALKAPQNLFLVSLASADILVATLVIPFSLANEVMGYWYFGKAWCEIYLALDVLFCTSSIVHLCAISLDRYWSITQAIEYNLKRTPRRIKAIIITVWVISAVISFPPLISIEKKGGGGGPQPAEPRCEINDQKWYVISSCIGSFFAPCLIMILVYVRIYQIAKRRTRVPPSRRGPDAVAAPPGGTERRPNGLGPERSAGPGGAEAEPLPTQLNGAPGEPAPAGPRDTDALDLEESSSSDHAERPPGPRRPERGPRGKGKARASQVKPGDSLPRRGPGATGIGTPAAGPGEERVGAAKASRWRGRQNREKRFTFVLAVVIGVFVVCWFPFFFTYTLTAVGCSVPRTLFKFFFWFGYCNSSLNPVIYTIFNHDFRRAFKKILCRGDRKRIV
Kind of test: Binding affinity against Alpha-2A adrenergic receptor, from human clones.

For test [5], the target named is T5, Alpha-1A adrenergic receptor (Rattus norvegicus, UniProt P43140).
T5 sequence (P43140 whole entry): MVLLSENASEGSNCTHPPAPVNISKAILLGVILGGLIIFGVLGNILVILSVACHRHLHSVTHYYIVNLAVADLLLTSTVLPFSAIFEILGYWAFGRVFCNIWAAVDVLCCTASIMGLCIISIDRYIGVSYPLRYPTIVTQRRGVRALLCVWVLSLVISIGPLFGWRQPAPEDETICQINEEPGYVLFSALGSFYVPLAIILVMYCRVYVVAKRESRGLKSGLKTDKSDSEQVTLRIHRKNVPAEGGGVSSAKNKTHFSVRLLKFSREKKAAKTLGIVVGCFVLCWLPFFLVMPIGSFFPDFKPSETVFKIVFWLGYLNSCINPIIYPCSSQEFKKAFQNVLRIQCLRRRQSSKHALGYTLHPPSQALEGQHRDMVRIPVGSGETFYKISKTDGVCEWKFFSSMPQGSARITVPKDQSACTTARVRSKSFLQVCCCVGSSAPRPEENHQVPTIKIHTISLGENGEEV
Kind of test: Overall binding displacement in tissues containing only the Alpha-1A adrenergic receptor from rat submaxillary gland.

The target of test [6] is Alpha-1B adrenergic receptor (Rattus norvegicus, UniProt P15823). Kind of test: Overall binding displacement in tissues containing only the Alpha-1B adrenergic receptor (rat spleen, rat liver). It is filed as tissue-based.

The structures appear in SMILES notation.

Chain of Alpha-1B adrenergic receptor (Rattus norvegicus, UniProt P15823) (P15823 whole entry, looked up): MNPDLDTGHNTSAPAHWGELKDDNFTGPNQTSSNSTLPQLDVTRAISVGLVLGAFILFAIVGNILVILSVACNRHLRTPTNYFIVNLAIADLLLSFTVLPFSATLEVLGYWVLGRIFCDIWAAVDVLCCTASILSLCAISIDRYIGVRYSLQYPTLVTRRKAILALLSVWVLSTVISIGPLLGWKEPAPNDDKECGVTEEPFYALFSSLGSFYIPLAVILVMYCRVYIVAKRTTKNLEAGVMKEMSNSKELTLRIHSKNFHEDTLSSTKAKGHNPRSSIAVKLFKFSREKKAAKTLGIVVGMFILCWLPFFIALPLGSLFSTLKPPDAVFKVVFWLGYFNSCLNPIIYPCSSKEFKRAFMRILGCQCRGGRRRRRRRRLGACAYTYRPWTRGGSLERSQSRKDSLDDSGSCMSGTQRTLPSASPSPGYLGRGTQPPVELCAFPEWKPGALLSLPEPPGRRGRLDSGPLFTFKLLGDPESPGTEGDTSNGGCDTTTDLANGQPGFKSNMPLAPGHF

In the case of `O=C(NC1CCN(CCc2c[nH]c3ccccc23)CC1)c1ccccc1` [INDORAMIN], the values for the Ki in test [1] and in test [2] were 29 nM and 110 nM, respectively.

As to `COc1cccc(OC)c1OCCNCC1COc2ccccc2O1` (centres undefined), the inhibition constant (Ki) (usually the equilibrium dissociation constant of an inhibitor or competing ligand from its target) in test [3] amounted to 46 nM; in test [4], 3.5 nM; in test [5], 0.08 nM.

Turning to `COc1ccccc1N1CCN(CCCNc2c(C)c(=O)n(C)c(=O)n2C)CC1`, the Ki in test [6] came to 96 nM; in test [1] it was 92 nM; in test [2], 21 nM; in test [5] it was 0.7 nM.
